Some results are limits rather than exact numbers.

The source of these data is patent US10240133B2, “ERK-derived peptides and uses thereof” (Yeda Research and Development Co. Ltd., priority 2013, dated 2019).

Assay [1] deals with ERK1/2. The assay can be described thus: Nuclear translocation of ERK (fluorescence microscopy, subcellular fractionation). In kind it is cell-based. Conditions: HeLa cells. The protocol: FIGS. 1A-1F illustrate that EPE peptide prevents nuclear translocation of ERK1. A2352 (A), MDA-MB-231 (B) HeLa (C), T47D (D), NHEM-AD (E) and HB2 (F) cells were serum-starved, pretreated with the EPE peptides, Scr peptide (10 μM, 2 h) DMSO and then either stimulated with TPA (250 nM, 15 min) or left untreated (NS) as control. The cells were stained with αgERK1/2 Ab and DAPI. Scale-bar—15 μm.
FIGS. 12A-12D illustrate that the EPE peptide inhibits the nuclear translocation of ERK1/2. Serum-starved (0.1% FCS, 16 hr) A2352 (FIG. 12A), HeLa (FIG. 12B), MDA-MB-231 (FIG. 12C), or LOXMVI (FIG. 12D) cells were pretreated with EPE or scrambled peptides (10 μM, 2 hr). Cells were then stimulated with EGF (50 ng/ml) or left untreated, and then harvested. Subcellular fractionation of cytoplasm and nucleus was performed as below, and fractions were subjected to Western blot analysis with the indicated Abs. Subcellular Fractionation was performed as follows: Harvested cells were resuspended in 200 μl of buffer H containing 0.1% Nonidet P-40. The lysates were mixed vigorously and centrifuged immediately to yield supernatants containing the cytosolic fraction. Nuclear proteins were extracted by resuspending the nuclear pellets in 200 μl of extraction buffer, waiting on ice for 5 min, brief sonication (2×5 sec, 40 W, 4° C.), vigorous mixing, and centrifugation. Both cytosolic and nuclear fractions were subjected to Western blotting.
A2185 (A) and A2352 (B) B-Raf melanoma cells were serum-starved (16 hours, 0.1% FBS), and then either pretreated with the EPE peptides (10 μM, 2 hours) or left untreated. Then, the cells were stimulated with TPA ([…], 20 min), or left untreated (NS) DMSO as control. The cells were stained with either anti ERK1 (Santa Cruz, C16) or anti ERK2 (C14, Santa Cruz) Abs and DAPI. (C) Quantification of the number of cell in which ERK1 or ERK2 were mostly (>80%) localized in the nucleus was performed by counting 5 fields containing 100 cells per field.
FIGS. 15A-15B illustrate that the EPE peptide prevents nuclear accumulation/translocation of ERK1/2 in PLX4032-resistant melanoma cells. A2352 that were made resistant to PLX4032 (as described under Material and Methods) and A4132 PLX4032 resistant melanoma cell from patient were serum-starved (16 hours, 0.1%), pretreated with the EPE or scrambled peptide (10 μM, 2 hours) and then either stimulated with TPA (100 nM, 20 min) or left untreated (NT) as control. The cells were stained with αgERK1/2 Ab and DAPI.
Cells were fixed in 3% paraformaldehyde in PBS (20 min, 23° C.), and then permeabilized and blocked with 0.2% Triton X-100 in PBS-BSA (2%) for 20 min at 23° C. The fixed cells were sequentially incubated with appropriated Abs, (diluted in 10 μg/ml BSA/PBS) for 1 h, followed by either Cy-2 or rhodamine-conjugated secondary Abs and DAPI (diluted in BSA/PBS, 1:200) for 1 h. To follow the subcellular localization of the biotin-conjugated peptides, cells were incubated with Avidin-FITC (diluted in BSA/PBS 1:400) and DAPI. Slides were analyzed and photographed by a fluorescent microscope (Nikon, Japan, 600× magnification).

Assay [2] has as its system other cell lines examined. The assay can be described thus: Apoptosis (TUNEL, PARP-1 cleavage). In kind it is cell-based. The protocol:
(§1) FIGS. 5A-5D illustrate that the EPE peptide leads to apoptosis of B-Raf mutant cancer cells. (A) The EPE peptide affects the morphology of treated cells. The indicated cells were treated with either the EPE or Scr peptides, DMSO, or taxol for 72 h, and photographed by a light microscope. (B) The EPE peptide induces apoptosis in melanoma cells detected by TUNEL. The indicated cell lines were treated as in A for 24 h. Apoptosis was detected by TUNEL staining. Images were obtained by florescence microscope. (C) Quantification of B. The bar-graph represents percent of apoptotic cells calculated in 10 different fields. (D) The EPE peptide induces apoptosis of melanoma cells detected by PARP cleavage. The indicated cell lines were treated as in (A) for 24 h. Cell extracts were subjected to Western blotting with αPARP Ab.
Cells were seeded on glass cover slips in a 12-wells plate at 25% confluence with medium containing 1% of FCS. Peptides (EPE or Scr), DMSO, or U0126 in a final concentration of 10 μM, were added after 4 h (considered as time “0”). TUNEL staining was performed at 24 h after the treatment according to manufacturer instruction (Roche Applied Science, Nutley, N.J., USA). Briefly, the medium was removed and cells were fixed with 3% of paraformaldehyde (1.5 h, 23° C.). Cells were rinsed twice with PBS and permeabilized with 0.1% Triton X-100 and 0.1% sodium citrate for 2 min on ice. Cells were rinsed twice with PBS and 28 μl of TUNEL reaction mixture (25 μl of TUNEL label, 2.5 μl of TUNEL enzyme and 0.1 mg/ml of DAPI) was added directly on top of the slide, cells were incubated for 16 h in humid box at 37° C. Cover slips were rinsed three times with PBS and mounted on microscope slides. The slides were dried and then subjected to image acquisition by a florescence microscope. For morphology assay, the cells were seeded at approximately 25% confluence in 6 cm plates with medium containing 1% FCS. Peptides (EPE and Scr) or DMSO or U0126 in a final concentration of 10 μM, were added after 4 h (considered to be time 0), 24 h and 48 h. Images were obtained by a light microscope (Olympus BX51) after 72 h.

For assay [3], the system named is PLX-4032 and U0126 resistant A2352 melanoma cells. The assay can be described thus: Proliferation of inhibitor-resistant melanoma cells. Format: cell-based.
Procedure: (A) A2352 melanoma cells resistant to either PLX4032 (B-Raf) or U0126 (MEK) inhibitors were treated with DMSO, EPE or Scr peptide (10 μM), U0126 (10 μM), PLX4032 (1 μM), Wortmannin (0.5 μM) or Taxol (25 μg/ml). Presented as percent of viable cells at 72 h/initial cell number. […] Methylene blue assay was performed to quantify viable cells. Experiments were done twice in triplicate. Data presented as fold change.
A2352 cells were supplemented with either PLX4032 (B-Raf inhibitor, 1 μM), or U0126 (MEK inhibitor, 10 μM) for 45 days. […]
For assay [4], the system named is A2352 xenografts. The assay can be described thus: Tumor disappearance and recurrence in A2352 xenografts, EPE peptide compared with PLX4032. Format: in vivo, SCID mice. The protocol: FIGS. 6A-6B illustrate that the EPE peptide prevents the growth of human tumor xenografts. CD-1 nude mice were inoculated with MDA-MB-231, LOXIMVI and HCT-116 cells, and SKID mice were inoculated with A2352 cells. Upon tumors establishment, the mice were treated intravenously with the DMSO as well as EPE or Scr peptides in the indicated doses, 3 times a week. The results are averages of 5 mice in each experimental group. The X, Y, Z dimensions of the tumors were measured with a caliper, and the volume was calculated accordingly. The significance of all experiments was at least P<0.001. (B) The EPE peptide prevents tumor recurrence on melanoma xenograft. SCID mice were inoculated with A2352 cells. Upon establishment of tumors mice were treated intravenously with 15 mg/kg EPE peptide (n=7) or intraperitonealy with 15 mg/kg PLX4032 (n=5), at the indicated dose 3 times a week. Tumor size was recorded at the same time using a caliper. Following 3 weeks of treatment, mice were kept for further evaluation monitoring for any tumor recurrence of the effective treated melanoma xenografts. Experiment was concluded 110 days post inoculation (11 weeks after the last treatment) and the overall state of the animals was evaluated. sac=sacrificed, recur=recurrence, met=metastasis.
Tumor dimensions were measured with a digital sliding caliper.

In assay [5] the test system is N-Ras transformed melanoma cells LOXIMVI. As to the kind of experiment: Cell viability, EPE peptide compared with PLX4032. In kind it is cell-based. The conditions noted are these: EPE 10 μM, PLX4032 1 μM, 1% FCS. The protocol: (§2) FIGS. 3A-3B illustrate that EPE peptide prevents proliferation of cancer but not normal cells. (A) Effect of the EPE peptide on the proliferation of various cell lines. Sixteen cancer and four “normal” immortalized cell lines were treated with either EPE or scrambled peptides as described above. Viable cells were assayed by Methylene Blue at 48 or 72 hours after cell seeding. The data from at least three independent experiments is presented as percent of the amount of viable cells/initial cell number, where initial cell number was considered as 100. (B) Comparison of the effects of the EPE-peptide and Raf inhibitor PLX4032 on cell viability. NHEM-Ad, LOXIMVI, A2352, Hela MDA-MB-231, and DU-145 cells were treated with EPE peptide, scrambled peptide, (10 μM), PLX4032 (1 μM), DMSO control, or no treatment at 1% FCS. The number of cells was detected as above. The graphs present the kinetic of cell growth at the indicated times. All experiments were repeated 3 times in triplicates.
(§3) All cells, except of MCF-10A, were seeded into 12-well cell plates in 1% FBS medium. MCF-10A cells were seeded in their complete medium diluted 5 fold. DMSO, Scr peptide, EPE peptide, or U0126 (final concentration of 10 μM each) were added to the appropriated wells four hours later. Every day medium was changed to fresh one containing the same agents. The number of viable cells was measured by Methylene Blue assay at 72 h after cell seeding. Shortly, cells were fixed with 4% Formaldehyde for 2 h at 23° C., washed once with 0.1M Borate Buffer pH 8.5 and stained with of 1% Methylene Blue in 0.1M Borate Buffer for 10 min. Color was extracted by adding 0.1 M HCl for 3 h at 23° C., and examined at 595 nm. For time course experiments, viable cells were measured at 0, 24, 48, 72 and 96 h after cell seeding. For dose response experiments we treaded the cells with 0.1, 1, 3, 10, or 30 μM of peptides for 72 h, as described above.

For assay [6], the system named is non-transformed melanocytes (NHEM-Ad). The assay can be described thus: Cell viability, EPE peptide compared with PLX4032. The conditions noted are these: EPE 10 μM, PLX4032 1 μM, 1% FCS. In kind it is cell-based. The protocol: as §2, §3
For assay [7], the system named is B-Raf melanoma cells. As to the kind of experiment: Morphology assay (light microscopy). In kind it is cell-based. The conditions noted are these: 10 μM. The protocol: as §1
Cells were seeded on glass cover slips in a 12-wells plate at 25% confluence with medium containing 1% of FCS. Peptides (EPE or Scr), DMSO, or U0126 in a final concentration of 10 μM, were added after 4 h (considered as time “0”). TUNEL staining was performed at 24 h after the treatment according to manufacturer instruction (Roche Applied Science, Nutley, N.J., USA). Briefly, the medium was removed and cells were fixed with 3% of paraformaldehyde (1.5 h, 23° C.). Cells were rinsed twice with PBS and permeabilized with 0.1% Triton X-100 and 0.1% sodium citrate for 2 min on ice. Cells were rinsed twice with PBS and 28 μl of TUNEL reaction mixture (25 μl of TUNEL label, 2.5 μl of TUNEL enzyme and 0.1 mg/ml of DAPI) was added directly on top of the slide, cells were incubated for 16 h in humid box at 37° C. Cover slips were rinsed three times with PBS and mounted on microscope slides. The slides were dried and then subjected to image acquisition by a florescence microscope. For morphology assay, the cells were seeded at approximately 25% confluence in 6 cm plates with medium containing 1% FCS. Peptides (EPE and Scr) or DMSO or U0126 in a final concentration of 10 μM, were added after 4 h (considered to be time 0), 24 h and 48 h. […]

Regarding “GQLNHILGILGSPSQED (Synthetic peptide (SPS)) [SPS peptide, NTS-derived peptide of ERK]”, the “TPA-induced nuclear translocation of ERK” value in assay [1] is given as “prevented TPA-induced nuclear translocation of ERK”.

`CC(=O)O[C@H]1C(=O)[C@@]2(C)[C@H]([C@H](OC(=O)c3ccccc3)[C@]3(O)C[C@H](OC(=O)[C@H](O)[C@@H](NC(=O)c4ccccc4)c4ccccc4)C(C)=C1C3(C)C)[C@]1(OC(C)=O)CO[C@@H]1C[C@@H]2O` [Taxol, reference compound]: in assay [2], the “apoptosis / cell death” value is “clear ability to undergo a Taxol or H2O2-induced cell death”. Also, the “effect in resistant compared with non-resistant cells” value in assay [3] was “as effective in non-resistant, as resistant cells”.

`CCCS(=O)(=O)Nc1ccc(F)c(C(=O)c2c[nH]c3ncc(-c4ccc(Cl)cc4)cc23)c1F` [PLX4032, reference compound]: the “time to complete disappearance of tumors” value in assay [4] (15 mg/kg, 3 times a week) fell in the range of 13 to 23 days. The tumor disappearance result in assay [4] (15 mg/kg, 3 times a week, 3 weeks, EPE i.v. (n=7), PLX4032 i.p. (n=5), initial ~80 mm3 tumors) is given as “complete disappearance in three mice”. In assay [4] (during treatment), the “time to development of resistance (one mouse)” value is at most 13 days. The “mice with tumor recurrence” value in assay [4] (follow up for up to 11 weeks after last treatment) is listed as 3 out of 5. Moreover, the viability result was “not sensitive to PLX4032” in assay [5] and “strong inhibitory effect” in assay [6].

For the molecule `OO` [H2O2], the “apoptosis / cell death” value in assay [2] is “clear ability to undergo a Taxol or H2O2-induced cell death”.

Consider `N#CC(=C(/N)Sc1ccccc1N)/C(C#N)=C(\N)Sc1ccccc1N` [U0126, reference compound], for which the “TPA-induced nuclear translocation of ERK” value in assay [1] was “inhibition”. The cell morphology result in assay [7] was “A similar appearance, albeit a weaker one”.
